Assay [1] deals with 5-hydroxytryptamine receptor 6 (Homo sapiens, UniProt P50406).
The target of assay [2] is T1, 5-hydroxytryptamine receptor 2C (Homo sapiens, UniProt P28335).
T1 sequence (P28335 whole entry): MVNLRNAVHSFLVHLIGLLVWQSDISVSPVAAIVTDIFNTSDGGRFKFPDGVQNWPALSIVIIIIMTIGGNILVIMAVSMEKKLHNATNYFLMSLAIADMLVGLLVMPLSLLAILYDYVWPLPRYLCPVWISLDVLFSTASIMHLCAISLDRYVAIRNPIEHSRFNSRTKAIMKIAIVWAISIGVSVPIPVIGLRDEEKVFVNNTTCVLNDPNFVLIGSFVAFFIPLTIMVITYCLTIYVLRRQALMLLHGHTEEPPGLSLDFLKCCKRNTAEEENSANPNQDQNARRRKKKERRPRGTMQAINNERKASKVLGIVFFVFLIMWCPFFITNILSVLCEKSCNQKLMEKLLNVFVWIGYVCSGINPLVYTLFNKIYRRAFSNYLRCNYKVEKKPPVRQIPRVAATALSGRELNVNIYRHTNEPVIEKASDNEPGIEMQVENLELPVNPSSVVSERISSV

The target of assay [3] is 5-hydroxytryptamine receptor 1B (Homo sapiens, UniProt P28222).
The target in assay [4] is 5-hydroxytryptamine receptor 2B (Homo sapiens, UniProt P41595).
Assay [5] has as its target T2, 5-hydroxytryptamine receptor 1F (Homo sapiens, UniProt P30939).
T2 sequence (P30939 whole entry): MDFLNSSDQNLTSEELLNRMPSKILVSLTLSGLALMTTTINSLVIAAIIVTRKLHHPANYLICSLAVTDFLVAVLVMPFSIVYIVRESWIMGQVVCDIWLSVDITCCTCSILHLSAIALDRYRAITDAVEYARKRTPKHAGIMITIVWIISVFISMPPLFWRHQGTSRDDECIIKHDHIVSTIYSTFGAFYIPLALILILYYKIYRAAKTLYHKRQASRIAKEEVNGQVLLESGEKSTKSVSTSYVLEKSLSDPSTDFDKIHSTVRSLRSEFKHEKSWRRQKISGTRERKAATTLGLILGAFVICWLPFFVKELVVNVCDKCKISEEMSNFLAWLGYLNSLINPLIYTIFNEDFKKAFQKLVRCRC

Assay [6] has as its target 5-hydroxytryptamine receptor 7 (Homo sapiens, UniProt P34969).
Assay [7] concerns the target 5-hydroxytryptamine receptor 2A (Homo sapiens, UniProt P28223).
For assay [8], the target named is 5-hydroxytryptamine receptor 1E (Homo sapiens, UniProt P28566).
Assay [9] addresses 5-hydroxytryptamine receptor 1D (Homo sapiens, UniProt P28221).
In assay [10] the target is T3, 5-hydroxytryptamine receptor 1A (Homo sapiens, UniProt P08908).
T3 sequence (P08908 whole entry): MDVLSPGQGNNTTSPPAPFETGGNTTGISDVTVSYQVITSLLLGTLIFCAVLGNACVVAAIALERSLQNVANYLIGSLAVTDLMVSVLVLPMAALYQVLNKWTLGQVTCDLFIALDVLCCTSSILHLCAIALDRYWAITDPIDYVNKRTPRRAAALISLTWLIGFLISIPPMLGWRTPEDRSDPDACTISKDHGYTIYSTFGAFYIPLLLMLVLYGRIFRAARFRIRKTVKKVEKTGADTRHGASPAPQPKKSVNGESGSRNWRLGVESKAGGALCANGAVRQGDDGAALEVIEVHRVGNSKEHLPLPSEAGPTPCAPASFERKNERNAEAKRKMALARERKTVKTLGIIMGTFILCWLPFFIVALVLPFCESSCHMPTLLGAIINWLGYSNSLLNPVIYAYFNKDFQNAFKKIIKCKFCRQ

Results on three compounds are retold here after BindingDB's records for doi:10.1007/pl00005056 (Smithkline Beecham Pharmaceuticals, 1997).

Where “and” joins values, the source holds several entries; their conditions need not be identical. Equal entries are not always repeated.

Chain of 5-hydroxytryptamine receptor 7 (P34969 whole entry): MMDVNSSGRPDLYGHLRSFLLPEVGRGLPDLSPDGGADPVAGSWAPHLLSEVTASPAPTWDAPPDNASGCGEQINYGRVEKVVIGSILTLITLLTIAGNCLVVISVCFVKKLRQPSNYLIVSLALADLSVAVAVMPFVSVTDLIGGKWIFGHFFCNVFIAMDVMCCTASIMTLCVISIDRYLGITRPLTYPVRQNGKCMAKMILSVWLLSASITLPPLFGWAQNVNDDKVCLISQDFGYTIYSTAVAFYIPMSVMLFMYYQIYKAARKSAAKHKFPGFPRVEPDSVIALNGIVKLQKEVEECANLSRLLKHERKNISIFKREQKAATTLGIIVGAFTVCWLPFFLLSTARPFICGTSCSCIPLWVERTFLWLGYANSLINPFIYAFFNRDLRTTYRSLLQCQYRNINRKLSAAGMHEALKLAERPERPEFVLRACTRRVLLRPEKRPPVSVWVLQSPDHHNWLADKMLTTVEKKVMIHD
Chain of 5-hydroxytryptamine receptor 2A (P28223 whole entry): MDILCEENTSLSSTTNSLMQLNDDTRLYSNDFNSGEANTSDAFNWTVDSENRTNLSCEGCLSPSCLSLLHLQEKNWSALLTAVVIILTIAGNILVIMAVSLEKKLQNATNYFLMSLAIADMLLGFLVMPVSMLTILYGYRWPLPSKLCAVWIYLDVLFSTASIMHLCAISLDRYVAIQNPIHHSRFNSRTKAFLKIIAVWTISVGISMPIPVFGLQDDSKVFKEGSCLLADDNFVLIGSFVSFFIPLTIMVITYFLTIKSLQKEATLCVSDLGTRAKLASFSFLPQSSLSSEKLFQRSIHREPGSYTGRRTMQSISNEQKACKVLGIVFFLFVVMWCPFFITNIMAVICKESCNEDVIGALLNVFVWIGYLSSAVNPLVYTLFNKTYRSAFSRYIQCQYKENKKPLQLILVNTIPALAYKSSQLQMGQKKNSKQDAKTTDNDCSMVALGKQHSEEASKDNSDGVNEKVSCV
Chain of 5-hydroxytryptamine receptor 1D (P28221 whole entry): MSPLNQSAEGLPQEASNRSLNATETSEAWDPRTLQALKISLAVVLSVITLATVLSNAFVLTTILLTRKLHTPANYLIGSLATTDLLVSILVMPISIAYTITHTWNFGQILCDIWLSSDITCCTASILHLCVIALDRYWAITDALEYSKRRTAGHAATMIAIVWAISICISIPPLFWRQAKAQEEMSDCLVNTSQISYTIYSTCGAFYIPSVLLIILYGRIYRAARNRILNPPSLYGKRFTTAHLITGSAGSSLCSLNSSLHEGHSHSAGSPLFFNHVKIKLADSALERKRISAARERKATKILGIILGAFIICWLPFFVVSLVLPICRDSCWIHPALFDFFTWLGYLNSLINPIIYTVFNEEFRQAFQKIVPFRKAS
Chain of 5-hydroxytryptamine receptor 6 (P50406 whole entry): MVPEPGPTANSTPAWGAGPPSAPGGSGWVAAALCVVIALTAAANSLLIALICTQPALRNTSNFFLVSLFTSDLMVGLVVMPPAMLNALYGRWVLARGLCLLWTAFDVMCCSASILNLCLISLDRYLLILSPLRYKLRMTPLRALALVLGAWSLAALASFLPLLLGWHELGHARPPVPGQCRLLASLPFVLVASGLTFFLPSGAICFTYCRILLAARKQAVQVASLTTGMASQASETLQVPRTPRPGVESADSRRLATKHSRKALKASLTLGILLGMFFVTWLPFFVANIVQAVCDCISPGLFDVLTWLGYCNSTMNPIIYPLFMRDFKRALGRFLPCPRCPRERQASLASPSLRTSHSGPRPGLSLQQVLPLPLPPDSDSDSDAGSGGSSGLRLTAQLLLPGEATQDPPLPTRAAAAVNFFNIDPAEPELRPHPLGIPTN
Chain of 5-hydroxytryptamine receptor 1E (P28566 whole entry): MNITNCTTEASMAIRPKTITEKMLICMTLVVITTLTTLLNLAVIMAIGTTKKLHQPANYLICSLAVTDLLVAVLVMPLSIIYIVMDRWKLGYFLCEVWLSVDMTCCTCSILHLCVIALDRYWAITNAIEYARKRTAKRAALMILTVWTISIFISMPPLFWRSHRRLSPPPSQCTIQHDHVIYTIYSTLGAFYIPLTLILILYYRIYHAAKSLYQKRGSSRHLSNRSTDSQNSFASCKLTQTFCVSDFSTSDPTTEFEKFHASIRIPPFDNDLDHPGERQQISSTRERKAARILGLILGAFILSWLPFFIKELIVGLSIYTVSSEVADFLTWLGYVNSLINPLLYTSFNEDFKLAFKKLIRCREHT
Chain of 5-hydroxytryptamine receptor 2B (P41595 whole entry): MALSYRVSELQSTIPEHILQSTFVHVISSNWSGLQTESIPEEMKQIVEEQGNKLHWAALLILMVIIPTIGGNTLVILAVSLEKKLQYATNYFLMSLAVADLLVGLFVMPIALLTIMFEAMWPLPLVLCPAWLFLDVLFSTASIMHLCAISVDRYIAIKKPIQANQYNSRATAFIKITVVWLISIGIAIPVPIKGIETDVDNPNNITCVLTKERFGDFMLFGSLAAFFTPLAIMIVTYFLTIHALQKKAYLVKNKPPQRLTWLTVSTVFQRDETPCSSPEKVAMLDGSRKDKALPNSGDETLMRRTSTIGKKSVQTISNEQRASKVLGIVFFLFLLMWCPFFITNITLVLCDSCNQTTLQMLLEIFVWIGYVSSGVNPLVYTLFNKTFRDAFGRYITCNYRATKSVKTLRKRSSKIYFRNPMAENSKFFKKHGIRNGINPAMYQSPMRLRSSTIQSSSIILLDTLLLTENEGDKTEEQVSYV
Chain of 5-hydroxytryptamine receptor 1B (P28222 whole entry): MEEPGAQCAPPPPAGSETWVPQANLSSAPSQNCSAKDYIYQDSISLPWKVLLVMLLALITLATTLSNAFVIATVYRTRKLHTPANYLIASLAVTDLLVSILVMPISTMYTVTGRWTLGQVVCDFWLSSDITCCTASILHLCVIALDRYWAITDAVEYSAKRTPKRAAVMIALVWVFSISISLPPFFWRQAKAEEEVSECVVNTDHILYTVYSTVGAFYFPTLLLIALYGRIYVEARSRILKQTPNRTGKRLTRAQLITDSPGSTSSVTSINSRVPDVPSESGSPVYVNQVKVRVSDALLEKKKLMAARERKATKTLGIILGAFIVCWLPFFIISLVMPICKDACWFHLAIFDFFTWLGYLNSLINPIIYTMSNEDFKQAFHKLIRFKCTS

A word on the Ki: it is a dissociation constant, usually derived from enzyme kinetics or from competition with a known ligand. A lower Ki goes with a stronger hold on the target. Regarding `OC(CN1CCN(c2cccc(Cl)c2)CC1)C(c1ccccc1)c1ccccc1` (stereo not drawn), the Ki is 1.26 µM in [1]; 0.631 µM in [2]; 0.794 µM and 1.26 µM in [3]; 0.0398 µM in [4]; 1 µM in assay [5]; 0.501 µM in assay [6]. In addition, the inhibitory constant (Ki) in [7] is 0.251 µM; in assay [8], 6.31 µM; in [9], 0.0126 µM and 0.00794 µM.

As to `COc1ccc(NC(=O)c2ccc(-c3ccc(-c4noc(C)n4)cc3C)cc2)cc1OCCN(C)C` [CAS_3292447], the Ki was 3.16 µM in assay [1]; 0.158 µM in assay [2]; 0.001 µM and 0.00794 µM in [3]; 1.58 µM in [4]; 1 µM in assay [5]; greater than 10 µM in assay [6]. Further, the Ki in [10] is 0.501 µM; in assay [7] it was 0.0501 µM; in assay [8] it was 1 µM; in assay [9], 0.0251 µM and 0.0126 µM.

Take `COc1ccc(NC(=O)c2ccc(-c3ccc(-c4noc(C)n4)cc3C)cc2)cc1N1CCN(C)CC1` [SMR001230745]: the Ki in assay [1] was 1.58 µM; in [2] it was 0.1 µM; in assay [3], 0.001 µM and 0.00794 µM; in assay [4] it was 0.631 µM; in [5], 0.398 µM; in [6], 0.631 µM. Besides, the Ki in assay [10] worked out at 0.0631 µM; in assay [7], 0.0158 µM; in assay [8], 3.98 µM.
